Source: ChEMBL document CHEMBL5247655, “Simplified Derivatives of Tetrandrine as Potent and Specific P-gp Inhibitors to Reverse Multidrug Resistance in Cancer Chemotherapy” (J Med Chem, 2023)

Key:
ECa-109 cell line [1] = experiment: Cytotoxicity against vincristine resistant human Eca-109 cells incubated for 48 hrs by CCK-8 method relative to control; assay type: functional; parameters: concentration or dose not given beside the values
ECa-109 cell line [2] = experiment: Reversal of vincristine-resistance in human Eca-109 cells assessed as fold reversal by measuring cell viability incubated for 48 hrs by CCK-8 method relative to vincristine alone; assay type: functional

SMILES	Activity (ECa-109 cell line [1]) [%]	fold change (FC) (ECa-109 cell line [2])
COc1cc2c(cc1OC)C(Cc1ccccc1)N(C)CC2 (centres undefined)	93.7	4.4
COc1cc2c(cc1OC)C(Cc1ccc(OC)c(OCC3CCOCC3)c1)N(C)CC2 (centres undefined)	94.4	126.8
COc1cc2c(cc1OC)C(Cc1ccc(C)cc1)N(C)CC2 (centres undefined)	95.9	4.5
COc1cc2c(cc1OC)C1Cc3ccc(OC)c(O)c3CN1CC2 (centres undefined)	74.2	1.2
COc1cc2c(cc1OC)C(Cc1ccc3c(c1)OCO3)N(C)CC2 (centres undefined)	90.8	5
COc1cc2c(cc1OC)C(Cc1ccc(OC)c(OCCC(C)C)c1)N(C)CC2 (centres undefined)	87.1	205.7
COc1cc2c(cc1OC)C(Cc1cccc(O)c1)N(C)CC2 (centres undefined)	99.2	4.3
COc1cc2c(cc1OC)C(Cc1ccc(F)cc1)N(C)CC2 (centres undefined)	99.3	2.8
COc1ccc(CC2c3cc(OC)c(OC)cc3CCN2C)cc1 (centres undefined)	96.3	7.4
COc1cc2c(cc1OC)C(CC1CCCCC1)N(C)CC2 (centres undefined)	89.9	3.7
COc1cc2c(cc1OC)C(Cc1ccc(Br)cc1)N(C)CC2 (centres undefined)	92.8	1.6
COc1cc(CC2c3cc(OC)c(OC)cc3CCN2C)ccc1O (centres undefined)	90.3	2.8
COc1cc2c(cc1OC)C(Cc1ccc(C(F)(F)F)cc1)N(C)CC2 (centres undefined)	91.7	3.5
COc1cc2c(cc1OC)C(Cc1ccc(Cl)cc1)N(C)CC2 (centres undefined)	93	8.6
COc1cc2c(cc1OC)C(Cc1ccc(OCCC3CCCCC3)c(OC)c1)N(C)CC2 (centres undefined)	54.3	166.4
CN1CCc2ccccc2C1=O	91.3	2.5
COc1cc2c(cc1OC)C(C)N(C)CC2 (centres undefined)	91.1	2.6
CCOc1ccc(CC2c3cc(OC)c(OC)cc3CCN2C)cc1OC (centres undefined)	88	11.7
CCOC(=O)CCCOc1cc(CC2c3cc(OC)c(OC)cc3CCN2C)ccc1OC (centres undefined)	86.7	219.3
CCC1c2cc(OC)c(OC)cc2CCN1C (centres undefined)	90.6	4.2
COc1cc2c(cc1OC)C(Cc1ccccc1Cl)N(C)CC2 (centres undefined)	96.3	13.4
COc1cc2c(cc1OC)C(CC(C)C)N(C)CC2 (centres undefined)	96.1	3.3
